Reference: patent EP0137083A1, “1,5-Benzothiazepine derivatives and production thereof” (HAMARI YAKUHIN KOGYO KABUSHIKI KAISHA also known as HAMARI …, priority 1983, dated 1985)

Columns and labels:
Assay type in all cases: in vivo
[1] = system: writhing syndrome; assay: Analgesic activity, mouse anti-writhing method (acetic acid-induced writhing); details: mice, I.P., 45 minutes before acetic acid
Method: (2) Analgestic Activity (Mouse Anti-Writhing Method)
Groups of 5 mice each, weighing 26 - 32 g, were treated intraperitoneally with the compounds. The method is based on the antagonism of a writhing syndrome (abnormal contraction and twisting of the body) produced by the intraperitoneal injection of 10 ml/kg of 0.7 X acetic acid-saline solution. Ten minutes after the acetic acid injection, the number of writhes observed in a 10 minute counting period was recorded. The compound was administered 45 minutes before the acetic acid injection.

[2] = system: Yeast-induced Pyresis in Rats; assay: Anti-pyretic activity, temperature regulation in yeast-induced pyretic rats; details: I.P.; for Rectal Temperature (C^o, Mean+ S.D.), Time after Treatment (hour) 0: 0 hour (just prior to drug administration); for Rectal Temperature (C^o, Mean+ S.D.), Time after Treatment (hour) 0.5: 0.5 hour; for Rectal Temperature (C^o, Mean+ S.D.), Time after Treatment (hour) 1.0: 1.0 hour; for Rectal Temperature (C^o, Mean+ S.D.), Time after Treatment (hour) 1.5: 1.5 hour; for Rectal Temperature (C^o, Mean+ S.D.), Time after Treatment (hour) 2.0: 2.0 hour; for Rectal Temperature, Change C^o: average at 0.5-2.0 hours versus vehicle (39.8)
Method: (3) Anti-pyretic Activity (Temperature Regulation in Pyretic Rats) Rats, weighing 220 - 300 g, were treated subcutaneously in the nape of the neck with 6 ml of 40 % suspension of dried Brewer's yeast in distilled water. Groups of 3 rats were treated intraperitoneally with the compound 17 hours challenge. Rectal temperature were recorded with a thermister type thermometer (Type BMA-77 produced by Natsume Seisalusho, Japan) just prior to the drug administration and at 30 minutes intervals for 2 hours.

[3] = system: Mice; assay: Minimum lethal dose test in mice (mortality after intraperitoneal dosing); details: I.P.; for No. of dead Animals, Day of test 0 / No. of dead Animals, Day of test 1 / No. of dead Animals, Day of test 2 / No. of dead Animals, Total: 2 animals
Method: (1) Minimum Lethal Dose Test in Mice
Groups of 2 mice each, weighing 29 - 36 g, were treated intraperitoneally with the compound and observed for signs of - central, autaonomic and toxic responses for 5 hours. Mortality counts were made on days 0, 1 and 2 (day 0 is the dosing day).

[4] = 30 mg/kg, first series (vehicle 10.9 ± 8.9)
[5] = 60 mg/kg, first series (vehicle 10.9 ± 8.9)
[6] = 60 mg/kg, second series (vehicle 12.8 ± 6.3)

CC(C)=CCN1CCC2(C)c3cc(O)ccc3CC1C2C (centres unmarked) [Pentazo-cine, reference compound]
% Change from Control [1, 4]: -83.5%
No. of Writhes (Mean + S.D.) [1, 4]: 1.8 ± 2.2

Cc1c(N(C)C)c(=O)n(-c2ccccc2)n1C [Amino-pyrin, reference compound]
Rectal Temperature, Average at 0.5-2.0 Hours Post-tretment ([2]; 30 mg/kg): 37.5 C^o
Rectal Temperature (C^o, Mean+ S.D.), Time after Treatment (hour) 0 ([2]; 30 mg/kg): 39.6±0.10 C^o
Rectal Temperature (C^o, Mean+ S.D.), Time after Treatment (hour) 0.5 ([2]; 30 mg/kg): 38.1±0.50 C^o
Rectal Temperature (C^o, Mean+ S.D.), Time after Treatment (hour) 1.0 ([2]; 30 mg/kg): 37.2±0.58 C^o
Rectal Temperature (C^o, Mean+ S.D.), Time after Treatment (hour) 1.5 ([2]; 30 mg/kg): 37.2±0.53 C^o
Rectal Temperature (C^o, Mean+ S.D.), Time after Treatment (hour) 2.0 ([2]; 30 mg/kg): 37.4±0.46 C^o
Rectal Temperature, Change C^o ([2]; 30 mg/kg): -2.3 C^o

COc1ccc(C2Sc3ccccc3N(CCN(C)C)C(=O)C2=O)cc1 (centres unmarked) [Ia, 2-(4-methoxyphenyl)-2,3-dihydro-5-(2-dimethylaminoethyl)-1,5-benzothiazepine-3,4(5H)-dione]
No. of dead Animals, Day of test 0 ([3]; 10 mg/kg): 0
No. of dead Animals, Day of test 1 ([3]; 10 mg/kg): 0
No. of dead Animals, Day of test 2 ([3]; 10 mg/kg): 0
No. of dead Animals, Total ([3]; 10 mg/kg): 0
No. of dead Animals, Day of test 0 ([3]; 30 mg/kg): 0
No. of dead Animals, Day of test 1 ([3]; 30 mg/kg): 0
No. of dead Animals, Day of test 2 ([3]; 30 mg/kg): 0
No. of dead Animals, Total ([3]; 30 mg/kg): 0
No. of dead Animals, Day of test 0 ([3]; 100 mg/kg): 0
No. of dead Animals, Day of test 1 ([3]; 100 mg/kg): 0
No. of dead Animals, Day of test 2 ([3]; 100 mg/kg): 0
No. of dead Animals, Total ([3]; 100 mg/kg): 0
No. of dead Animals, Day of test 0 ([3]; 300 mg/kg): 2
No. of dead Animals, Total ([3]; 300 mg/kg): 2
Minimum Acute Lethal Dose ([3]; mortality counted on days 0, 1 and 2): 300 mg/kg
% Change from Control [1, 5]: -92.7%
No. of Writhes (Mean + S.D.) [1, 5]: 0.8 ± 1.3
% Change from Control [1, 6]: -100.0%
No. of Writhes (Mean + S.D.) [1, 6]: 0.0 ± 0.0
Rectal Temperature, Average at 0.5-2.0 Hours Post-tretment ([2]; 60 mg/kg): 38.7 C^o
Rectal Temperature (C^o, Mean+ S.D.), Time after Treatment (hour) 0 ([2]; 60 mg/kg): 39.7±0.15 C^o
Rectal Temperature (C^o, Mean+ S.D.), Time after Treatment (hour) 0.5 ([2]; 60 mg/kg): 38.4±0.57 C^o
Rectal Temperature (C^o, Mean+ S.D.), Time after Treatment (hour) 1.0 ([2]; 60 mg/kg): 38.4±0.35 C^o
Rectal Temperature (C^o, Mean+ S.D.), Time after Treatment (hour) 1.5 ([2]; 60 mg/kg): 38.8±0.49 C^o
Rectal Temperature (C^o, Mean+ S.D.), Time after Treatment (hour) 2.0 ([2]; 60 mg/kg): 39.0±0.51 C^o
Rectal Temperature, Change C^o ([2]; 60 mg/kg): -1.1 C^o
